Reference: patent US20170273922A1, “UREA AND BIS-UREA BASED COMPOUNDS AND ANALOGUES THEREOF USEFUL IN THE TREATMENT OF ANDROGEN RECEPTOR MEDIATED DISEASES OR DISORDERS” (THE ROYAL INSTITUTION FOR THE ADVACEMENT OF LEARNING/MCGILL …, priority 2014, published 2017)

Assays:
Type in all cases: cell-based
[1] = molecular target: T1, IRF3DBD-AR(1-547) (Homo sapiens, UniProt P10275); assay: IRF3DBD-AR(1-547) ISRE-luc reporter assay; conditions: PC3 cells, 24 h
T1 construct: IRF3-AR(1-547) is the fusion of IRF3 DBD with the AR NTD (1-547); expressed in transfected cells
T1 sequence (P10275 1-547): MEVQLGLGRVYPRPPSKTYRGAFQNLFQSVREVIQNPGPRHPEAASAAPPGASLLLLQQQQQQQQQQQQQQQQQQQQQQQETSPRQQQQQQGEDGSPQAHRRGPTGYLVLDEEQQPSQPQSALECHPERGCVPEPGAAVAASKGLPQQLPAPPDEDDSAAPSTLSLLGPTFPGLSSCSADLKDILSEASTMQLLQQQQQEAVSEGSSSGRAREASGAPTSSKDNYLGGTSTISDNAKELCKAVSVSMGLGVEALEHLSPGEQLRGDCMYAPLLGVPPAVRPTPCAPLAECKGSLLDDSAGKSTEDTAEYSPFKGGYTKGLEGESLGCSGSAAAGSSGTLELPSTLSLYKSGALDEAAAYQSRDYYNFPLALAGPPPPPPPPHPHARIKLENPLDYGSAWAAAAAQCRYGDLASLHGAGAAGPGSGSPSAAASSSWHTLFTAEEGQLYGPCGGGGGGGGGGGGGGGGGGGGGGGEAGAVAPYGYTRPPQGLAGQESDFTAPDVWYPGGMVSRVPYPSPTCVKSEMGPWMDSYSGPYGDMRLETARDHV

[2] = test system: LNCaP cells; assay: MTT assay (cytotoxicity), LNCaP cells
Procedure: (§1) MTT assays: LNCaP, 22Rv1, Du145, H1975, A549, MB231 and MCF-7 cells are maintained in RPMI 1640 supplemented with 10% FBS. Cells were seeded at a density of 6-7×10^3 cells per well in 96-well plates. After overnight incubation, cells in fresh RPMI 1640 supplemented with 10% FBS were exposed to DMSO vehicle control or test compounds at designated concentrations for 72 h. Viable cells were evaluated by MTT assays. Experiments were performed in triplicate and repeated at least twice.

[3] = test system: DU145 cells; assay: MTT assay (cytotoxicity), DU145 cells; conditions: 72 h, Table 2.1
Procedure: as §1

[4] = test system: 22Rv1 cells; assay: MTT assay (cytotoxicity), 22Rv1 cells
Procedure: as §1

[5] = molecular target: T2, full-length IRF3 (Homo sapiens, UniProt Q14653); assay: Full-length IRF3 ISRE-luc reporter assay; conditions: PC3 cells, 24 h
T2 construct: co-transfected with full-length IRF3 or IRF3DBD-AR(1-547) expressing plasmids; expressed in transfected cells
T2 sequence (Q14653 1-427): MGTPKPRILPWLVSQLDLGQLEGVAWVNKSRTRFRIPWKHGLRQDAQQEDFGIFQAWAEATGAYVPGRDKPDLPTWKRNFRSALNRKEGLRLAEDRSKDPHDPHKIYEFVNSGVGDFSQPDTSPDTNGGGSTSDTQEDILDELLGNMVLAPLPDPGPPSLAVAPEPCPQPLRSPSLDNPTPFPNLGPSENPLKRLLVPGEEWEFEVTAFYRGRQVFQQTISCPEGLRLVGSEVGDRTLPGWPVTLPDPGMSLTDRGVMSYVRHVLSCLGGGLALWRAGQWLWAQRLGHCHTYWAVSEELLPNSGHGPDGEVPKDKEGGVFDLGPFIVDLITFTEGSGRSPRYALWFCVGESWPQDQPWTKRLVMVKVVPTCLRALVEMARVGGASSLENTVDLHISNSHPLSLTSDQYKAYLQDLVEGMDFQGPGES
From the text: For all of the others, cells were co-transfected with full-length IRF3 or IRF3DBD-AR(1-547) expressing plasmids and with the ISRE-luc reporter and pRL-TK plasmids. […] As IRF3DBD-AR(1-547) contains the DBD of IRF3, ISRE-luc reporter instead of the PSA-luc reporter was used in our assays.
HEK293 cells were co-transfected with IRF3DBD(1-133) or IRF3DBD-AR(1-547) or IRF3DBD-AR(181-547) or full-length IRF3 expressing plasmids and with the ISRE-luc reporter and the Renilla luciferase pRL-TK plasmids.
Here, IRF3-AR(1-547) is the fusion of IRF3 DBD with the AR NTD (1-547). […] The plasmids expressing IRF3-AR(1-547) (A) or wild-type IRF3 (B) or IRF3 DBD (for NT) as well as ISRE-luc and pRL-TK were transiently transfected into PC3 cells. […] Bic, bicalutamide; EPI, EPI-001.

[6] = MTT assay (cytotoxicity), MB231 cells; conditions: human, 72 h treatment, Table 6.1
Procedure: as §1

[7] = MTT assay (cytotoxicity), LNCaP cells; conditions: human, LNCaP cells
Procedure: as §1

[8] = MTT assay (cytotoxicity), A549 cells; conditions: human, 72 h treatment, Table 6.1
Procedure: as §1

[9] = MTT assay (cytotoxicity), 22Rv1 cells; conditions: human, 22Rv1 cells
Procedure: as §1

[10] = MTT assay (72 h), liver hepatocellular carcinoma cell line of Table 6.1; conditions: human, HepG2 cells (liver hepatocellular carcinoma), 72 h treatment, read-out: Cytotoxicity (IC50, μM) HepG2
[11] = MTT assay (cytotoxicity), MCF-7 cells; conditions: human, 72 h treatment, Table 6.1
Procedure: as §1

[12] = MTT assay (cytotoxicity), H1975 cells; conditions: human, 72 h treatment, Table 6.1
Procedure: as §1

[13] = MTT assay (cytotoxicity), DU145 cells; conditions: human, DU145 cells
Procedure: as §1

Question: For `O=C(N/C=C/c1cc(C(F)(F)F)cc(C(F)(F)F)c1)Nc1cnccn1` [Compound 528], which “inhibition of IRF3-AR(1-547)-dependent ISRE-luc reporter activity” value [1] is on record?
Answer: Its value is “potently inhibit”.

Question: And the IC50 ([2]; 72 h, Table 2.1)?
Answer: The IC50 was 0.12 µM.

Question: And the IC50 ([2]; LNCaP cells, 72 h treatment, Table 6.1)?
Answer: The IC50 was 0.12 µM.

Question: And the IC50 [3]?
Answer: Its IC50 is < 1 µM.

Question: And the IC50 ([4]; 22Rv1 cells, 72 h treatment, Table 6.1)?
Answer: Its IC50 is < 1 µM.

Question: And the IC50 ([4]; 72 h, Table 2.1)?
Answer: The IC50 was < 1 µM.

Question: And the “activity against wild-type IRF3 (ISRE-luc)” value [5]?
Answer: Its value is “inactive”.

Question: Which IC50 at 72 h [6] does the source give for `O=C(Nc1cccc(C(F)(F)F)c1)Nc1ccc(C(=O)Nc2ccccc2F)c(C(F)(F)F)c1` [Compound 822] here?
Answer: The IC50 at 72 h was 8.1 µM.

Question: What about the IC50 at 72 h ([7]; 72 h treatment, Table 6.1) of the same compound?
Answer: The IC50 at 72 h was 3 µM.

Question: And the IC50 at 72 h [8]?
Answer: Its IC50 at 72 h is 6 µM.

Question: What about the IC50 at 72 h ([9]; 72 h treatment, Table 6.1) of the same compound?
Answer: Its IC50 at 72 h is 4 µM.

Question: What about the IC50 at 72 h [10] of the same compound?
Answer: Its IC50 at 72 h is 3.2 µM.

Question: And the IC50 at 72 h [11]?
Answer: Its IC50 at 72 h is 4.5 µM.

Question: What about the IC50 at 72 h [12] of the same compound?
Answer: Its IC50 at 72 h is 6.3 µM.

Question: What does the source list for `O=C(N/C=C/c1ccc([N+](=O)[O-])c(C(F)(F)F)c1)NCc1cccc(C(F)(F)F)c1` [Compound 461]?
Answer: IC50 at 72 h ([7]; 72 h, Table 2.4): 2.4 µM; IC50 at 72 h ([13]; Table 2.4): 3.4 µM; IC50 at 72 h ([9]; 72 h, Table 2.4): 3.4 µM

Question: For `O=C(N/C=C/c1cccc(C(F)(F)F)c1)Nc1ccccc1NC(=O)N/C=C/c1cccc(C(F)(F)F)c1` [Compound 451], which IC50 at 72 h ([7]; 72 h, Table 5.1) is on record?
Answer: The IC50 at 72 h was 2.4 µM.

Question: What about the IC50 at 72 h ([13]; Table 5.1) of the same compound?
Answer: Its IC50 at 72 h is 5.4 µM.

Question: What about the IC50 at 72 h ([9]; 72 h, Table 5.1) of the same compound?
Answer: Its IC50 at 72 h is 4.4 µM.

Question: For `O=C(N/C=C/c1ccco1)Nc1ccc([N+](=O)[O-])c(C(F)(F)F)c1` [Compound 434], which IC50 at 72 h ([7]; 72 h, Table 2.4) is on record?
Answer: Its IC50 at 72 h is 2 µM.

Question: What about the IC50 at 72 h ([13]; Table 2.4) of the same compound?
Answer: The IC50 at 72 h was 7.8 µM.

Question: And the IC50 at 72 h ([9]; 72 h, Table 2.4)?
Answer: The IC50 at 72 h was 5.6 µM.

Question: Which results are given for `O=C(Nc1cc(C(F)(F)F)cc(C(F)(F)F)c1)Nc1ccncn1` [Compound 578]?
Answer: IC50 at 72 h ([7]; 72 h, Table 4.1): 1.3 µM; IC50 at 72 h ([13]; Table 4.1): 2.4 µM; IC50 at 72 h ([9]; 72 h, Table 4.1): 5.5 µM

Question: With `O=C(N/C=C/c1cccc(C(F)(F)F)c1)Nc1cccc(NC(=O)N/C=C/c2cccc(C(F)(F)F)c2)c1` [Compound 440] as the compound, how does the IC50 at 72 h ([7]; 72 h, Table 5.1) read?
Answer: Its IC50 at 72 h is 1.7 µM.

Question: What about the IC50 at 72 h ([13]; Table 5.1) of the same compound?
Answer: The IC50 at 72 h was 5.1 µM.

Question: What about the IC50 at 72 h ([9]; 72 h, Table 5.1) of the same compound?
Answer: Its IC50 at 72 h is 4.9 µM.

Question: For `O=C(Nc1cccc(C(F)(F)F)c1)Nc1ccc(F)cc1NC(=O)c1cc(Cl)ccc1F` [Compound 968], which “inhibition of IRF3-AR(1-547)-dependent ISRE-luc reporter activity” value [1] is on record?
Answer: Its value is “potently inhibit”.

Question: What about the “activity against wild-type IRF3 (ISRE-luc)” value [5] of the same compound?
Answer: The value was “inactive”.

Question: What does the source list for `O=C(N/C=C/c1cccs1)Nc1cccc(C(F)(F)F)c1` [Compound 420]?
Answer: IC50 at 72 h ([7]; 72 h, Table 2.4): 6.4 µM; IC50 at 72 h ([13]; Table 2.4): 12.3 µM; IC50 at 72 h ([9]; 72 h, Table 2.4): 12.3 µM

Question: Which IC50 at 72 h ([7]; 72 h, Table 2.3) does the source give for `O=C(N/C=C/c1cc(C(F)(F)F)ccc1C(F)(F)F)Nc1cnc2ccccc2c1` [Compound 524] here?
Answer: Its IC50 at 72 h is 3.4 µM.

Question: What about the IC50 at 72 h ([13]; Table 2.3) of the same compound?
Answer: The IC50 at 72 h was 7.4 µM.

Question: And the IC50 at 72 h ([9]; 72 h, Table 2.3)?
Answer: The IC50 at 72 h was 8.4 µM.
